In patent US7618972B2, “Substituted triazole derivatives as oxytocin antagonists” (Pfizer Inc, priority 2005, dated 2009):

Target: T1, oxytocin receptor (CHO-OTR/NFAT-β-Lactamase cells) (Homo sapiens, UniProt P30559)
T1 construct: expressed in transfected cells; host or cells: CHO-OTR cell line, further transfected with the NFAT-β-lactamase reporter construct
T1 sequence (P30559 1-389): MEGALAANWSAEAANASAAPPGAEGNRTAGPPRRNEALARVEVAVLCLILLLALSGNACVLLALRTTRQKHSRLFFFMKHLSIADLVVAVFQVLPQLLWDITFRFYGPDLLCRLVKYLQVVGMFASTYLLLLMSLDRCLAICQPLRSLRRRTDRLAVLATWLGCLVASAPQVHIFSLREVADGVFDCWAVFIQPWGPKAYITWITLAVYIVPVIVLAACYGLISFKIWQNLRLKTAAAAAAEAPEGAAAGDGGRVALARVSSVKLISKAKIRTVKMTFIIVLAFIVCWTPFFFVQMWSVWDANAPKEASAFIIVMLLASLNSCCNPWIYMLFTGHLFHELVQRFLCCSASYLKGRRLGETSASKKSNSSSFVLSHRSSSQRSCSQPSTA
Experiment: Oxytocin Receptor Beta-Lactamase Assay
Type: cell-based
Conditions: oxytocin antagonist activity, n=3
Method: A suitable assay for determining the oxytocin antagonist activity of a compound is detailed herein below.
Oxytocin Receptor Beta-Lactamase Assay
Cells used are CHO-OTR/NFAT-β-Lactamase. The NFAT-β-lactamase expression construct was transfected into the CHO-OTR cell line and clonal populations were isolated via fluorescence activated cell sorting (FACS). An appropriate clone was selected to develop the assay. […]
Cells grown at 80-90% confluence were harvested and counted. […]
Preparation of 1 ml of 6× Loading Buffer with Enhanced Loading Protocol (this requires scale-up according to number of plates to be screened) • 12 μl of solution A (1 mM CCF4-AM in Dry DMSO) was added to 60 μl of solution B (100 mg/ml Pluronic-F127 in DMSO+0.1% Acetic Acid) and vortexed. • The resulting solution was added to […] of solution C (24% w/w PEG400, 18% TR40 v/v in water). • 75 μl of solution D was added (200 mM probenecid in 200 mM NaOH). • 10 μl of 6× Loading Buffer was added to all wells and incubated for 1.5 hrs-2 hrs at room temperature in the dark. • The plates were read using an LJL Analyst, Excitation 405 nm, Emission 450 nm and 530 nm, gain optimal, lagtime 0.40 μs integration, 4 flashes, bottom reading.

- Ki: 5.4 nM
SMILES: COc1ccc(-n2c(C)nnc2-c2cnc(-c3ccc(F)cc3Cl)cn2)cn1 [Example 1, 2-(2-Chloro-4-fluoro-phenyl)-5-[4-(6-methoxy-pyridin-3-yl)-5-methyl-4H-[1,2,4]triazol-3-yl]-pyrazine]
